Source: patent US20060148712A1, “Monocyte chemoattractant activity of galectin-3” (priority 2000, published 2006)
Where two headings read alike, the source gives them in different places.

Key:
[1] = tested on: human peripheral blood monocytes; test: Monocyte migration assay in vitro (96-well micro Boyden chamber); type: cell-based; conditions: for inhibition at 10000 µM: Homo sapiens, Monocyte, 10 mM lactose, read-out: Inhibition of galectin-3-induced monocyte migration
Text: Human monocytes were purified from venous blood of normal volunteers essentially as described previously (Nakagawara, et al., J. Clin. Invest. 68:1243-53 (1981)). In brief, after erythrocytes were sedimented by addition of 6% dextran saline solution (I part to 5 parts heparinized blood), the leukocytes were collected, washed twice, and resuspended in Ca^2+ and Mg^2+-free HBSS containing 5% autologous serum. Mononuclear cells were acquired by centrifugation of the leukocyte suspension on Ficoll Paque at 1,500 rpm for 15 min. The cells were resuspended in RPMI 1640 containing 10% autologous serum and allowed to adhere to sterile tissue culture plates for 30 min in a humidified incubator at 5% CO2 and 37° C. After incubation, non-adherent cells were removed by washing the plates three times with PBS at 37° C. […] To detach and harvest the adhered monocytes, 1 mM EDTA-PBS containing 5% serum was added and the plates were incubated on ice for 30 min. The monocytes were washed twice with HBSS and resuspended in RPMI 1640 with 0.1% autologous serum for the migration assay. The viability of monocytes was determined by trypan blue exclusion and was more than 98%. In some experiments, monocytes were purified according to another method using a Percoll discontinuous gradient described previously (Chuluyan & Issekutz, J. Clin. Invest. 92:2768-77 (1993)).
(§1) Monocyte migration was examined by using 96-well micro Boyden chambers with 5 μm-pore size filters (Neuro Probe, Inc., Gaithersburg, Md.) as described previously (Falk, et al., J. Immunol. Meth. 33:239-47 (1980)), Chertov, et al., J. Biol. Chem. 271:2935-40 (1996)). Briefly, after the indicated concentrations of galectin-3 in RPMI 1640 were applied to the lower chambers, purified monocyte suspensions (2.5-5.0×10^4/well) were applied to the upper chambers. After incubation of the chambers for 1 h in a humidified incubator at 5% CO2 and 37° C., the filters were washed once with PBS and processed with Wright stain. The number of monocytes on the bottom side of the filters was counted in 5 to 10 high-power fields. Monocyte migration was calculated from the average numbers of the counted cells and expressed as % of input cells in a well.
In assays using inhibitory reagents, the purified monocytes were pretreated with or without the indicated concentrations of B2C10 (Liu, et al., Biochemistry 35:[…] (1996)) or anti-DNP IgG1 (Liu, et al., J. Immunol. 124:2728-31 (1980)) as an isotype-matched control mAb, galectin-3C, or PTX at 37° C. for 30 min. Then the cells were applied to the upper chambers in the presence of these inhibitors at the same concentrations used in the pretreatment. In the assays using lactose and sucrose, the sugars were added to the lower chambers at the initiation of the migration assay.

human monocytes = test: Measurement of Ca2+ influx in monocytes (Indo-1 AM); type: cell-based; conditions: for Induction of Ca2+ influx in human monocytes by chemokine: 100 ng/ml
Method: Intracellular concentrations of Ca^2+ were measured by using Indo-1 AM according to a previously described method (Lopez, et al., Cytometry 10:165-73 (1989)). Purified monocytes were resuspended in HBSS containing 1 mM Ca^2+, 1 mM Mg^2+, and 5% autologous serum, and incubated with […] Indo-1 AM for 45 min at 37° C. The cells were washed once, resuspended in the same buffer, and stimuli and inhibitors were added at the time points specified in the Figure Legends. Intracellular Ca^2+ concentration was measured by monitoring light emission at 405 and 485 nm to an excitation wavelength of 355 nm, using an AMINCO-Bowman series 2 luminescence spectrometer (Rochester, N.Y.).

[2] = tested on: cultured human peripheral blood macrophages; test: Migration of cultured human peripheral blood macrophages in vitro; type: cell-based; conditions: confirmed by applicant (FIG. 9)
Text: (§2) Human macrophages were obtained by culturing peripheral blood monocytes in vitro for 7 days as previously described (Fantuzzi, et al., Blood 94:875-83 (1999)). Human alveolar macrophages were obtained from bronchoalveolar lavage (BAL) fluid according to a previously described protocol (Sugimoto et al, Am. Rev. Respir. Dis. 139:1329-35 (1989)). The purity of the macrophages was over 90% and the viability was over 99%.
as §1

[3] = tested on: human alveolar macrophages; test: Migration of human alveolar macrophages in vitro; type: cell-based
Text: as §2, §1

monocytes = type: cell-based, human; conditions: 1 μg/ml of PTX; data not shown
Method: The possibility that G-proteins might be involved in galectin-3-induced monocyte migration was tested using the inhibitor pertussis toxin (PTX), because it is well known that many chemoattractants, including all chemokines, utilize G-protein-coupled receptors to transduce signals into the cell (Baggiolini, Nature 392:565-68 (1998)).

OC[C@H]1O[C@@H](O[C@H]2[C@H](O)[C@@H](O)C(O)O[C@@H]2CO)[C@H](O)[C@@H](O)[C@H]1O (some centres unmarked) [lactose, reference compound]
Effect on monocyte migration induced by MCP-1 ([1]; 5 mM and 10 mM lactose): did not affect
Decrease of galectin-3-induced monocyte migration ([1]; 5 mM lactose, 10 nM galectin-3, p<0.05, n=3): 63.8%
Decrease of galectin-3-induced monocyte migration ([1]; 5 mM lactose, 100 nM galectin-3, p<0.05, n=3): 71.5%
Decrease of galectin-3-induced monocyte migration ([1]; 5 mM lactose, 1 μM galectin-3, p<0.05, n=3): 57.6%
inhibition at 10000 µM ([1]; 10 nM galectin-3, p<0.05, n=3): 78%
inhibition at 10000 µM ([1]; 100 nM galectin-3, p<0.05, n=3): 74.1%
inhibition at 10000 µM ([1]; 1 μM galectin-3, p<0.05, n=3): 71.1%
Inhibition of MCP-1-induced Ca2+ influx (human monocytes; 5 mM lactose, 100 ng/ml MCP-1): not
Inhibition of galectin-3-induced Ca2+ influx (human monocytes; 5 mM lactose, 1 μM galectin-3): complete inhibition

OC[C@H]1O[C@@](CO)(O[C@H]2O[C@H](CO)[C@@H](O)[C@H](O)[C@H]2O)[C@@H](O)[C@@H]1O [sucrose, reference compound]
Effect on galectin-3-induced monocyte migration ([1]; sucrose 5 mM or 10 mM, negative control sugar): no significant effect
Inhibition of galectin-3-induced Ca2+ influx (human monocytes; 5 mM sucrose, 1 μM galectin-3): not

MCP-1: human recombinant MCP-1, a strong chemoattractant for monocytes (Pepro Tech)
Concentration that induced maximum monocyte migration ([1]; dose-response experiments, also printed as 11.6 nM): 100 ng/mL
Induction of Ca2+ influx in human monocytes by chemokine (human monocytes): induced a Ca^2+ influx
Response of cultured human macrophages to MCP-1 [2]: do not respond
Effect on alveolar macrophage migration ([3]; FIG. 10, exp. 1): no effect
Effect on alveolar macrophage migration ([3]; FIG. 10, exp. 2): negligible effect

SDF-1α
Induction of Ca2+ influx in human monocytes by chemokine (human monocytes): induced a Ca^2+ influx

pertussis toxin [PTX, reference compound]
Inhibition of MCP-1-induced monocyte migration ([1]; 1 μg/ml of PTX, all MCP-1 concentrations examined): significantly inhibited
Decrease of galectin-3-induced monocyte migration ([1]; PTX, 1 μM galectin-3, p<0.01, n=5): 91.2%
Inhibition of galectin-3-induced monocyte migration ([1]; PTX, 10 or 100 nM galectin-3, p=0.8501 and 0.3093, n=5): did not significantly inhibit
Viability of monocytes (monocytes): did not decrease the viability
Effect of PTX on MCP-1-induced Ca2+ influx (human monocytes; 1 μg/ml of PTX, 100 ng/ml MCP-1): blocked
Effect of PTX on galectin-3-induced Ca2+ influx (human monocytes; 1 μg/ml of PTX, 1 μM galectin-3): blocked
